Laboratory results published in US12522588B2, “Herbicidal compounds” (SYNGENTA CROP PROTECTION AG, priority 2020, dated 2026).

Columns and labels:
Type in all cases: in vivo
[1] = system: Amaranthus retoflexus (AMARE); assay: Pre-emergence test, glasshouse; details: 250 g/ha, evaluated after 13 days, Table B2
Procedure: (§1) Seeds of a variety of test species are sown in standard soil in pots Amaranthus retoflexus (AMARE), Abutilon theophrasti (ABUTH), Setaria faberi (SETFA), Echinochloa crus-galli (ECHCG), Ipomoea hederacea (IPOHE)). After cultivation for one day (pre-emergence) or after 8 days cultivation (post-emergence) under controlled conditions in a glasshouse (at 24/16° C., day/night; 14 hours light; 65% humidity), the plants are sprayed with an aqueous spray solution derived from the formulation of the technical active ingredient in acetone/water (50:50) solution containing 0.5% Tween 20 (polyoxyethelyene sorbitan monolaurate, CAS RN 9005-64-5). Compounds are applied at 250 g/ha unless otherwise stated. The test plants are then grown in a glasshouse under controlled conditions in a glasshouse (at 24/16° C., day/night; 14 hours light; 65% humidity) and watered twice daily. After 13 days for pre and post-emergence, the test is evaluated for the percentage damage caused to the plant. The biological activities are shown in the following table on a five-point scale (5=81-100%; 4=61-80%; 3=41-60%; 2=21-40%; 1=0-20%).

[2] = system: Echinochloa crus-galli (ECHCG); assay: Pre-emergence test, glasshouse; details: 250 g/ha, evaluated after 13 days, Table B2
Procedure: as §1

[3] = system: Ipomoea hederacea (IPOHE); assay: Pre-emergence test, glasshouse; details: 250 g/ha, evaluated after 13 days, Table B2
Procedure: as §1

[4] = system: Setaria faberi (SETFA); assay: Pre-emergence test, glasshouse; details: 250 g/ha, evaluated after 13 days, Table B2
Procedure: as §1

[5] = system: Amaranthus retoflexus (AMARE); assay: Post-emergence test, glasshouse; details: 250 g/ha, evaluated after 13 days, Table B1
Procedure: as §1

[6] = system: Echinochloa crus-galli (ECHCG); assay: Post-emergence test, glasshouse; details: 250 g/ha, evaluated after 13 days, Table B1
Procedure: as §1

[7] = system: Ipomoea hederacea (IPOHE); assay: Post-emergence test, glasshouse; details: 250 g/ha, evaluated after 13 days, Table B1
Procedure: as §1

[8] = system: Setaria faberi (SETFA); assay: Post-emergence test, glasshouse; details: 250 g/ha, evaluated after 13 days, Table B1
Procedure: as §1

Compound	percentage damage caused to the plant, AMARE [1]	percentage damage caused to the plant, ECHCG [2]	percentage damage caused to the plant, IPOHE [3]	percentage damage caused to the plant, SETFA [4]	percentage damage caused to the plant, AMARE [5]	percentage damage caused to the plant, ECHCG [6]	percentage damage caused to the plant, IPOHE [7]	percentage damage caused to the plant, SETFA [8]
Cc1cnc(Oc2cc(C(F)(F)F)nn2-c2ccc(C(F)(F)F)cc2)nc1 [Compound 1.020, 5-methyl-2-[5-(trifluoromethyl)-2-[4-(trifluoromethyl)phenyl]pyrazol-3-yl]oxy-pyrimidine]	5 (5=81-100%)	5 (5=81-100%)	1 (1=0-20%)	5 (5=81-100%)	5 (5=81-100%)	4 (4=61-80%)	3 (3=41-60%)	4 (4=61-80%)
Fc1cnc(Oc2cc(C(F)(F)F)nn2-c2ccc(C(F)(F)F)cc2)nc1 [Compound 1.021]	5 (5=81-100%)	5 (5=81-100%)	2 (2=21-40%)	5 (5=81-100%)	4 (4=61-80%)	5 (5=81-100%)	4 (4=61-80%)	4 (4=61-80%)
Cc1ncc(-n2nc(C(F)(F)F)cc2Oc2ncc(Cl)cn2)cn1 [Compound 1.022, 5-chloro-2-[2-(2-methylpyrimidin-5-yl)-5-(trifluoromethyl)pyrazol-3-yl]oxy-pyrimidine]	5 (5=81-100%)	4 (4=61-80%)	1 (1=0-20%)	5 (5=81-100%)	5 (5=81-100%)	4 (4=61-80%)	1 (1=0-20%)	4 (4=61-80%)
FC(F)Oc1ccc(-n2nc(C(F)(F)F)cc2Oc2ncc(Cl)cn2)cc1 [Compound 1.028]	2 (2=21-40%)	1 (1=0-20%)	1 (1=0-20%)	2 (2=21-40%)	4 (4=61-80%)	2 (2=21-40%)	1 (1=0-20%)	2 (2=21-40%)
Cc1ccc(-n2nc(C(F)(F)F)cc2Oc2ncc(Cl)cn2)cc1 [Compound 1.029]	3 (3=41-60%)	4 (4=61-80%)	1 (1=0-20%)	4 (4=61-80%)	4 (4=61-80%)	2 (2=21-40%)	2 (2=21-40%)	2 (2=21-40%)
Fc1ccccc1-n1nc(C(F)(F)F)cc1Oc1ncc(Cl)cn1 [Compound 1.033]	2 (2=21-40%)	1 (1=0-20%)	1 (1=0-20%)	1 (1=0-20%)	3 (3=41-60%)	1 (1=0-20%)	1 (1=0-20%)	1 (1=0-20%)
FC(F)(F)c1ccc(-n2nc(C(F)(F)F)cc2Oc2ncc(Br)cn2)cc1 [Compound 1.036, 5-bromo-2-[5-(trifluoromethyl)-2-[4-(trifluoromethyl)phenyl]pyrazol-3-yl]oxy-pyrimidine]	3 (3=41-60%)	4 (4=61-80%)	1 (1=0-20%)	4 (4=61-80%)	4 (4=61-80%)	1 (1=0-20%)	2 (2=21-40%)	1 (1=0-20%)
